“Also recorded” adds a separate entry of the source.
Legend:
polarized T84 monolayers = test: Caspase-1 activation and cell extrusion in nigericin-treated polarized T84 monolayers (FLICA 1 staining, Western blot); type: cell-based, human
Text: To investigate the morphology of caspase-1-induced IEC extrusion, we applied nigericin, a well-established Nlrp3-dependent inflammasome activator to polarized T84 monolayers. […] Active caspase-1 expression in nigericin-treated T84 cells was confirmed by Western blot analysis (FIG. 1b).
(§1) T84 human colon cancer epithelial cells were maintained in tissue culture plates (10 cm) in Dulbecco's minimal essential medium (DMEM)/F-12, 10% (v/v) heat-inactivated fetal bovine serum (FBS), 1%(w/v) penicillin-streptomycin. The cells were plated onto Transwells (2×10^5 cells/well, 6.5 mm diameter; 0.4 μm-pore size; Corning Life Sciences, Tewksbury, Mass.) and grown until development of apical junctional complexes (as indicated by a transepithelial resistance of >2,000 Ω·cm^2) for studies. For caspase-1 inhibition experiment, prior to nigericin treatment, the tissue culture medium was removed and fresh medium with 50 µM caspase-1 inhibitor (Ac-YVAD-CMK) was introduced. Nigericin (10, 25, 50 µM) was added to both the apical and basolateral aspect of the Transwell. Transepithelial resistance (TER) was measured at before and 3 h after Nigericin treatment, using a Millicell-ERS Voltmeter and chopstick electrodes (Millipore, Bedford, Mass.). […]

T84 monolayers [1] = test: Trans-epithelial electrical resistance (TER) of T84 monolayers; type: cell-based, human
Text: (§2) To determine whether this form of cell extrusion results in loss of barrier function, we measured the trans-epithelial electrical resistance (TER). […] Given that the breach in the T84 monolayers appeared to be 1-2 μm in diameter on TEM images, we evaluated the epithelial integrity to microparticles (1 μm Fluoresbrite® Microspheres) and microbes (E. coli […]) using the lowest dose of nigericin treatment. […] Fluoresbrite microspheres and E. coli TMW2.497 were recovered in the media from basolateral well.
T84 human colon cancer epithelial cells were maintained in tissue culture plates (10 cm) in Dulbecco's minimal essential medium (DMEM)/F-12, 10% (v/v) heat-inactivated fetal bovine serum (FBS), 1%(w/v) penicillin-streptomycin. The cells were plated onto Transwells (2×10^5 cells/well, 6.5 mm diameter; 0.4 μm-pore size; Corning Life Sciences, Tewksbury, Mass.) and grown until development of apical junctional complexes (as indicated by a transepithelial resistance of >2,000 Ω·cm^2) for studies. For caspase-1 inhibition experiment, prior to nigericin treatment, the tissue culture medium was removed and fresh medium with 50 µM caspase-1 inhibitor (Ac-YVAD-CMK) was introduced. Nigericin (10, 25, 50 µM) was added to both the apical and basolateral aspect of the Transwell. […] For microspheres and […] experiments, after overnight incubation with nigericin, 10^7/ml of 1 μm Microspheres or 10^9/ml E. coli TMW2.497 were added to the apical aspect of Transwell. One hour after incubation with the microspheres or E. coli, the cells were fixed in cold methanol for 5 minutes. Cells were then permeabilized in 0.2%(v/v) Triton X-100 for 15 min and blocked for one hour in PBS with 0.2% (v/v) goat serum and 1%(w/v) BSA.

T84 monolayers [2] = test: Movement of microspheres and E. coli across the T84 monolayer in Transwell; type: cell-based, human; settings: nigericin 10 μM overnight (lowest dose)
Text: as §2
as §1, with “Nigericin (10, 25, 50 µM) was added to both the apical and basolateral aspect of the Transwell.” left out

[3] = in vivo; cited from earlier work
IL-10 KO mice [4] = test: IEC extrusion measured as epithelial gap density by confocal endomicroscopy in IL-10 KO mice; type: in vivo, mouse; settings: 10 mg/kg intraperitoneal, 4, 7 and 10 days
Procedure: (§3) To evaluate the effect of caspase-1 inhibition on IEC extrusion over time in vivo, we treated the IL-10 KO mice with a selective caspase-1 inhibitor Ac-YVAD-CMK (10 mg/kg) over 4, 7 and 10 day (5 times the mean lifespan of rodent)enterocytes^40) via intraperitoneal injections. The control IL-10 KO group received 10 days of equal volume of 2% (v/v) DMSO.
Confocal laser endomicroscopy of the mouse ileum and confocal microscopy of whole mount mouse intestinal tissues for determination of epithelial gap density were performed using previously described methods. Cell culture, human and mouse intestinal slides were imaged using a spinning disc confocal microscope (Quorum Technologies Inc, Guelph, ON) using previously described methods.

IL-10 KO mice [5] = test: Permeation of orogavaged 0.5 μm microspheres into blood of IL-10 KO mice; type: in vivo, mouse; settings: 10 mg/kg, day 7
Procedure: as §3
For microsphere studies, mice were gavaged with a mixture containing 10^7 Fluoresbrite® YG Microspheres with diameter of 0.5, 1.0, 2.0, 3.0, and 6.0 μm in 200 μl solution as previously described after an overnight fast. Blood samples were collected 4 hours post-administration of the beads. Whole blood mixture was then centrifuged at 1,250×g in pre-heparinized tubes for 10 min at RT, the plasma portion of the samples were removed and centrifuged at 1,250×g for 5 min before flow cytometry analysis. The remaining buffy coat and hematocrit of the samples were lysed with 5 mL of lysing buffer (4.15 g NH4Cl, 0.84 g NaHCO3, 1 ml […] EDTA at pH 8, and 500 mL of ddH2O) at RT, mixed and centrifuged at 1,250×g for 5 min at 4° C.×3. The supernatant was discarded. The WBC pellet was re-suspended in 400 μl of 0.03% PBS with Fetal Bovine Albumin. The plasma and WBC pellet samples were analyzed with flow cytometry for determination of microsphere counts.

Compound	active caspase-1 (p10) expression by Western blot (polarized T84 monolayers; nigericin 50 μM, T84 cells)	activated caspase-1 and cell extrusion by FLICA 1 staining (polarized T84 monolayers; nigericin, 3-hours post-treatment)	TER of T84 monolayers (barrier function) (T84 monolayers [1]; nigericin 10, 25, 50 μM, 3 h)	TER as measured by ECIS over time (T84 monolayers [1]; nigericin, overnight)	movement of 1 μm microspheres and E. coli TMW2.497 across the monolayer (T84 monolayers [2])	systemic toxicity [3]	reversal of nigericin-induced TER reduction measured by ECIS (T84 monolayers [1]; nigericin 25 μM, overnight)	reversal of nigericin-induced TER reduction / barrier dysfunction (T84 monolayers [1]; pre-treatment with caspase-1 inhibitor, nigericin 25 μM, 3 hours and overnight)	IEC extrusion as epithelial gap density (IL-10 KO mice [4])	permeation of orogavaged 0.5 μm latex microspheres into blood (IL-10 KO mice [5])
CO[C@@H]1C[C@@H](C[C@H]2CC[C@H](C)[C@H]([C@@H](C)C(=O)O)O2)O[C@]2(O[C@](C)([C@H]3CC[C@@](C)([C@@H]4O[C@@H]([C@H]5O[C@@](O)(CO)[C@H](C)C[C@@H]5C)C[C@@H]4C)O3)C[C@H]2C)[C@@H]1C [nigericin, Nigericin]	increased active caspase-1 (p10) expression	increased activated caspase-1 and cell extrusion	dose-dependent reduction in TER; also recorded: dose-dependent barrier dysfunction developed	time-dependent reduction in TER	Movements of microspheres and E. coli from the upper chamber through the monolayer to the lower chamber of the Transwell were observed	significant systemic toxicity				
Ac-YVAD-CMK							reversed	reversed; also recorded: abrogated	Time-dependent reduction in IEC extrusion	normalization of permeation
